Data reported in US9518041B2, “(+)-5-(3,4-difluorophenyl)-5-[(3-methyl-2-oxopyridin-1(2H)-yl)methyl]imidazolidine-2,4-dione and drug containing same” (KAKEN PHARMACEUTICAL CO., LTD., priority 2013, dated 2016).

What was measured:
Format in all cases: biochemical
human MMP-1 = target: T1, human MMP-1 (Homo sapiens, UniProt P03956); experiment: MMP-1 inhibition test; conditions: read-out: Inhibitory activity (IC50, nM) MMP-1
T1 construct: purchased Calbiochem 444208
T1 sequence (P03956 100-469): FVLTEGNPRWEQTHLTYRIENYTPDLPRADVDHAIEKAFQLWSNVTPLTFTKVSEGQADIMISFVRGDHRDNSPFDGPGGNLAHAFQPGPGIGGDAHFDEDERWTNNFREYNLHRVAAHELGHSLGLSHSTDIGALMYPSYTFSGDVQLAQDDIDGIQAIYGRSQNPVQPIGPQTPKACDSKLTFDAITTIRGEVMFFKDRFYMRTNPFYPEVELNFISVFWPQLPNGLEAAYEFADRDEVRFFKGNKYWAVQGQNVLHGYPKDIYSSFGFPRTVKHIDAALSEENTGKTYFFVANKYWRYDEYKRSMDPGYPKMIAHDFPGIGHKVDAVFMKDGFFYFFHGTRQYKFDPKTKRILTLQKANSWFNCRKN
Experimental: (§1) MMP inhibition tests can be carried out, for example, using a fluorescent synthetic substrate based on the methods described in Bickett et al. (D. Mark Bickett et al., Anal. Biochem., 1993, 212, 58-64) and Nagase et al. (H. Nagase et al., J. Biol. Chem., 1994, 269, 20952-20957). The method for each MMP inhibition test is shown below.
180 μL (100 ng) of human MMP-1 (Calbiochem #444208) was mixed with 20 μL of 10 mM p-amino phenyl mercuric acetate (APMA), and activated by reacting at 37° C. for 1 hour. 20 μL of the resultant enzyme solution was diluted to 90 μL with an assay buffer A. The mixture was added to 90 μL of a 20 μM fluorescent substrate (Dnp-Pro-Cha(β-cyclohexylalanyl)-Gly-Cys(Me)-His-Ala-Lys(Nma)-NH2) (SEQ ID NO: 2) prepared with an assay buffer B, and reacted at 37° C. for 5 hours. Enzyme activity was then determined by measuring with a fluorescence intensity meter (Labsystems, Fluoroskan Ascent) at an excitation wavelength of 355 nm and a measurement wavelength of 460 nm.
(§2) From the enzyme activity in the presence or the absence of the test substance, the inhibition rate was determined, and the 50% inhibitiory concentration (IC50) of the test substance was calculated.

TACE = target: T2, TACE (Homo sapiens, UniProt P78536); experiment: TACE inhibition test (in vitro), fluorescent synthetic substrate; conditions: 37° C., 1.5 hours, read-out: TACE inhibitory activity, IC50 value
T2 construct: made in house; host or cells: mammalian cells or insect cells
T2 sequence (P78536 215-824): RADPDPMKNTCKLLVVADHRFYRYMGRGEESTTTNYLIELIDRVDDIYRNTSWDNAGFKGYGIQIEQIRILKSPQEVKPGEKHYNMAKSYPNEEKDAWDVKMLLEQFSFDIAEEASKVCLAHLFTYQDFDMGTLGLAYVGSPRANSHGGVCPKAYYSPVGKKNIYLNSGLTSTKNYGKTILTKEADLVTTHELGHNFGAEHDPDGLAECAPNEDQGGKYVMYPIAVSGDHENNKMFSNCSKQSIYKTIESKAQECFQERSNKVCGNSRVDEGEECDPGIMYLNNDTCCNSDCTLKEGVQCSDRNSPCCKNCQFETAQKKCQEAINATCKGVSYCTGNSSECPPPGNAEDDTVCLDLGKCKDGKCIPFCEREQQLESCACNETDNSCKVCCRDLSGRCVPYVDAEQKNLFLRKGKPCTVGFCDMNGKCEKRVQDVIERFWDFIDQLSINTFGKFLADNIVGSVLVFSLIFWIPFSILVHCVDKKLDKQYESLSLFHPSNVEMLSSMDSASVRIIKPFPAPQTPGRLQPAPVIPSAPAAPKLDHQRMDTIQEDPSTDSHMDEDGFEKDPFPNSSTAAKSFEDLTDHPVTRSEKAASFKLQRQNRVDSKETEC
Experimental: The nucleotide sequence of TACE has been reported by Moss et al. (Moss, M. L. et al., Nature 1997, 385, 733-736). Accordingly, the cDNA of TACE was obtained according to the prescribed method from THP-1 cells or the like, and then incorporated the cDNA into an expression vector. Next, this vector was transformed into mammalian cells or insect cells, and TACE expression was obtained. […]
Namely, 90 μL of an enzyme solution prepared with an assay buffer A (50 mM tris-hydrochloric acid buffer (pH 7.5) including 200 mM sodium chloride, 5 mM calcium chloride, 10 μM zinc sulfate, and 2 mg/mL bovine serum albumin) and 90 μL of a fluorescent synthetic substrate prepared with an assay buffer B (50 mM tris-hydrochloric acid buffer (pH 7.5) including 200 mM sodium chloride, 5 mM calcium chloride, 10 μM zinc sulfate, and 0.05% PLURONIC F-68) were mixed together, and reacted at 37° C. for 1.5 hours. Enzyme activity was then determined by measuring with a fluorescence intensity meter (Labsystems, Fluoroskan Ascent) at an excitation wavelength of 355 nm and a measurement wavelength of 460 nm. […]

human MMP-9 = target: T3, human MMP-9 (Homo sapiens, UniProt P14780); experiment: MMP-9 inhibition test; conditions: read-out: Inhibitory activity (IC50, nM) MMP-9
T3 construct: purchased Calbiochem 444231
T3 sequence (P14780 107-707 limits assumed): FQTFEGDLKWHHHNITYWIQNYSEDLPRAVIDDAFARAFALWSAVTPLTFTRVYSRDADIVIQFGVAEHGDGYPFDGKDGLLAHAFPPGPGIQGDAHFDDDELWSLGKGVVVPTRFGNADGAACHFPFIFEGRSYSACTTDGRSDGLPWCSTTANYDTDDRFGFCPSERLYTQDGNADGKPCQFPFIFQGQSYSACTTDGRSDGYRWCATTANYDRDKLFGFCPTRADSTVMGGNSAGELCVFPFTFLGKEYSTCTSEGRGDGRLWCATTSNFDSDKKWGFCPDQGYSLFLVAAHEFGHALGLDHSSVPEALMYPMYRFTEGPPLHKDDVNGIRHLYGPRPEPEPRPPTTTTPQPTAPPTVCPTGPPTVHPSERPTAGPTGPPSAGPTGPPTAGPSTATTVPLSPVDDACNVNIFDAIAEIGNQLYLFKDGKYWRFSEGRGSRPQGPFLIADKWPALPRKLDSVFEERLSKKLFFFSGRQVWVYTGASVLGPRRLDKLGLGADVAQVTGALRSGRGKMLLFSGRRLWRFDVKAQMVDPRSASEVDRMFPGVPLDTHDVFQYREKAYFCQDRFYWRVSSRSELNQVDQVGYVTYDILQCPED
Experimental: as §1
90 μL (11 ng) of human MMP-9 (Calbiochem #444231) was mixed with 10 μL of 10 mM APMA, and activated by reacting at 37° C. for 2 hours. 10 μL of the resultant enzyme solution was diluted to 90 μL with an assay buffer A. The mixture was added to 90 μL of a 20 μM fluorescent substrate (Dnp-Pro-Cha-Gly-Cys(Me)-His-Ala-Lys(Nma)-NH2) (SEQ ID NO: 2) prepared with an assay buffer B, and reacted at 37° C. for 4 hours. Enzyme activity was then determined by measuring with a fluorescence intensity meter (Labsystems, Fluoroskan Ascent) at an excitation wavelength of 355 nm and a measurement wavelength of 460 nm.
as §2

## Cc1cccn(CC2(c3ccc(F)c(F)c3)NC(=O)NC2=O)c1=O (single isomer, unassigned; (+)) [(+)-5-(3,4-difluorophenyl)-5-[(3-methyl-2-oxopyridin-1(2H)-yl)methyl]imidazolidine-2,4-dione]
Human MMP-1
  IC50: > 10000 nM
TACE
  IC50: ≤ 0.1 µM
Human MMP-9
  IC50: > 10000 nM
